This is an account of results in patent publication US12479844B2, “Ion channel modulators” (Praxis Precision Medicines, Inc., priority 2018, dated 2025).

Molecules are shown by their SMILES.

T1 sequence (Q9UQD0 whole entry): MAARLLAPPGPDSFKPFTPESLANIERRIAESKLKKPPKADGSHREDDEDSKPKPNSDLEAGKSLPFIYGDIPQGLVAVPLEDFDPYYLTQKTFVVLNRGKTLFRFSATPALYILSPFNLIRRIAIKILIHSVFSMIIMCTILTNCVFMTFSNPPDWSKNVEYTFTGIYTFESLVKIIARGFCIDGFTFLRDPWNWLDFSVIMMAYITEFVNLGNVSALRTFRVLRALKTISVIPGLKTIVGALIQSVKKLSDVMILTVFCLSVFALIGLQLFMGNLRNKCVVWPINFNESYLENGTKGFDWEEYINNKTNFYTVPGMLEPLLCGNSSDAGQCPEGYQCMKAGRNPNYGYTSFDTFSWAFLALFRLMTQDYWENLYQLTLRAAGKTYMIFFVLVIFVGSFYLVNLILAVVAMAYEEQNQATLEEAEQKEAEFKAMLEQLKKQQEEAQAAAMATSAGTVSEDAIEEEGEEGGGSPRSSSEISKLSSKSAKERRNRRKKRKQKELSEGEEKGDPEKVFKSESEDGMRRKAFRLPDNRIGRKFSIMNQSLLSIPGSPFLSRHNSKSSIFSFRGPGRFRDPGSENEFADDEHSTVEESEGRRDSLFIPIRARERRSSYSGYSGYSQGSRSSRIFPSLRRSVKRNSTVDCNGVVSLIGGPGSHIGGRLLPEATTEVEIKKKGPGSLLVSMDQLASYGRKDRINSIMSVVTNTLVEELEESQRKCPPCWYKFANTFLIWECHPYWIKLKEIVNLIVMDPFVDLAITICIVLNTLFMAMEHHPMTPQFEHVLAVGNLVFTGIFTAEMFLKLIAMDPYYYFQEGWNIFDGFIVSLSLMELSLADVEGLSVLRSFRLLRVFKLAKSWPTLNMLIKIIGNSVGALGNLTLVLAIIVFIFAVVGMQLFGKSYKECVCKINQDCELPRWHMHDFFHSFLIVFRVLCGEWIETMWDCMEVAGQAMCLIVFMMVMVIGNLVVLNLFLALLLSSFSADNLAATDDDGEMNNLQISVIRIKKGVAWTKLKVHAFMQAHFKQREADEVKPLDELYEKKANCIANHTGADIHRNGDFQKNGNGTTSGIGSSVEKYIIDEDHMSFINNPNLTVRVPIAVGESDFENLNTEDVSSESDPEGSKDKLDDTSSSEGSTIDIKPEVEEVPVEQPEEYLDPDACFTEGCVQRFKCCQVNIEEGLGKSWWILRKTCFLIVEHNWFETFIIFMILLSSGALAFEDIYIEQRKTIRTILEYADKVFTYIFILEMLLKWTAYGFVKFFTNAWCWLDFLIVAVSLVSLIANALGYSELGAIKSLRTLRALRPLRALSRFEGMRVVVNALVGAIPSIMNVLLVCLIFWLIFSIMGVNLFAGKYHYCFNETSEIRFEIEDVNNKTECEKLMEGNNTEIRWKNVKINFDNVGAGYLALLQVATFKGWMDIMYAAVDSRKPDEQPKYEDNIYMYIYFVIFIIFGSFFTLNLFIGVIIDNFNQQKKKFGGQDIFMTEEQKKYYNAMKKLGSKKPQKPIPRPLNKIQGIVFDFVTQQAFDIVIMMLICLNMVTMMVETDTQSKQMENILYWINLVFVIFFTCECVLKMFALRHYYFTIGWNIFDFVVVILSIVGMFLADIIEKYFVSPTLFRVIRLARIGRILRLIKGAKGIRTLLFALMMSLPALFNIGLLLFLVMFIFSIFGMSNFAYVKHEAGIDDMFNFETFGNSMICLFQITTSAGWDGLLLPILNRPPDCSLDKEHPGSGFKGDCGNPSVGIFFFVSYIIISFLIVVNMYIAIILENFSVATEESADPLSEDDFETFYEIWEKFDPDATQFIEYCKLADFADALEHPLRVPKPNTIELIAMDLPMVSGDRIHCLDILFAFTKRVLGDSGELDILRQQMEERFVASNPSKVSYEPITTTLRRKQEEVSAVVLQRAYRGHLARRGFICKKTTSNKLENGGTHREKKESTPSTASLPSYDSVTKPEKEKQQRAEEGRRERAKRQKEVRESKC

This assay concerns the target T1, human NaV1.6 (hNaV1.6) (Homo sapiens, UniProt Q9UQD0).
T1 construct: expressed in transfected cells; host or cells: HEK-293
Kind of assay: Modulation of late sodium current (INaL), PatchXpress high throughput electrophysiology. It is filed as cell-based. As to conditions: HEK293, HEK-293 cells expressing recombinant human NaV1.6, late current evoked by 300 nM ATX-II, read-out: NaV 1.6 Assay Data (percent inhibition of INaL at hNaV1.6). As for the experimental part:
Functional characterization of exemplary compounds to modulate INaL expressed by the NaV1.6 voltage-gated sodium channel was accomplished using the PatchXpress™ high throughput electrophysiology platform (Molecular Devices, Sunnyvale, CA). HEK-293 cells expressing recombinant, human NaV1.6 (hNaV1.6) were grown in DMEM/high-glucose Dulbecco's modified, 10% FBS, 2 mM sodium pyruvate, 10 mM HEPES and 400 μg/mL G418. Cells were grown to 50%-80% confluency prior to harvesting. Trypsinized cells were washed, allowed to recover for 1 hour and then resuspended in extracellular recording solution at a concentration of 1×10^6 cells/ml. The onboard liquid handling facility of the PatchXpress was used for dispensing cells and applying test compounds. NaV late currents were evoked by the application of 300 nM ATX-II. INaL was evoked by depolarizing pulses to 0 mV for 200 ms from a non-inactivating holding potential (e.g., −120 mV) at a frequency of 0.1 Hz. INaL amplitude and stability were determined by analyzing the mean current amplitude over the final 20 ms of thetest pulse. Following steady state block with exemplary compounds (e.g., as described herein), a Na+ free solution containing an impermeant cation (e.g., Choline or NDMG) was added to confirm the identify of the sodium current. Percent steady-state inhibition of INaL was calculated as: [(INaL_compound)/(INaL_control)]*100, where INaL_compound and INaL_control represent INaL recorded in the presence or absence of compound, respectively.
Regarding `CCOC(F)(F)c1nnc2cnc(-c3ccc(OC(F)(F)F)c(C)c3)cn12` [Compound 9, 3-[ethoxy(difluoro)methyl]-6-[3-methyl-4-(trifluoromethoxy)phenyl]-[1,2,4]triazolo[4,3-a]pyrazine], the inhibition at 1 µM was in the range of 30 to 70%. Then `CCOC(F)(F)c1nnc2cnc(-c3ccc(OC4CC(F)(F)C4)cc3C)cn12` [Compound 38, 6-[4-(3,3-difluorocyclobutoxy)-2-methyl-phenyl]-3-[ethoxy(difluoro)methyl]-[1,2,4]triazolo[4,3-a]pyrazine], with over 70%; and `COC(F)(F)c1nnc2cnc(-c3ccc(OCC(F)(F)F)cc3C)cn12` [Compound 21, 3-(difluoro(methoxy)methyl)-6-(2-methyl-4-(2,2,2-trifluoroethoxy)phenyl)-[1,2,4]triazolo[4,3-a]pyrazine], with 30 to 70%; and `Cc1cc(OC(F)(F)F)ccc1-c1cn2c(COCC(C)C)nnc2cn1` [Compound 7, 3-(isobutoxymethyl)-6-(2-methyl-4-(trifluoromethoxy)phenyl)-[1,2,4]triazolo[4,3-a]pyrazine], with 30 to 70%. Then `COCc1nnc2cnc(-c3ccc(OC(F)(F)F)cc3C)cn12` [Compound 3, 3-(methoxymethyl)-6-[2-methyl-4-(trifluoromethoxy)phenyl]-[1,2,4]triazolo[4,3-a]pyrazine], with under 30%; and `COCc1nnc2ccc(-c3ccc(OC(F)(F)F)cc3C)nn12` [Compound 8, 3-(methoxymethyl)-6-[2-methyl-4-(trifluoromethoxy)phenyl]-[1,2,4]triazolo[4,3-b]pyridazine], with 30 to 70%.

Regarding `COC(F)(F)c1nnc2cnc(-c3cc(F)c(OC(F)(F)F)cc3C)cn12` [Compound 40, 3-[difluoro(methoxy)methyl]-6-[5-fluoro-2-methyl-4-(trifluoromethoxy)phenyl]-[1,2,4]triazolo[4,3-a]pyrazine], the inhibition at 1 µM is over 70%. Regarding `CCc1cc(OC(F)(F)F)ccc1-c1cn2c(C(F)(F)OC)nnc2cn1` [Compound 26, 3-[difluoro(methoxy)methyl]-6-[2-ethyl-4-(trifluoromethoxy)phenyl]-[1,2,4]triazolo[4,3-a]pyrazine], the inhibition at 1 µM was over 70%. With `COC(F)(F)c1nnc2ccc(-c3ccc(OC(F)(F)F)cc3C)nn12` [Compound 14, 3-[difluoro(methoxy)methyl]-6-[2-methyl-4-(trifluoromethoxy)phenyl]-[1,2,4]triazolo[4,3-b]pyridazine], the inhibition at 1 µM is 30 to 70%. For `COC(F)(F)c1nnc2cnc(-c3ccc(OC(C)C)cc3C)cn12` [Compound 22, 3-(difluoro(methoxy)methyl)-6-(4-isopropoxy-2-methylphenyl)-[1,2,4]triazolo [4,3-a]pyrazine], the inhibition at 1 µM was in the range of 30 to 70%.
